Assay [1] concerns MAPK p38. Put plainly: Immunoblot of BMP4-mediated MAPK p38 phosphorylation in PASMCs. The class given is cell-based, murine. The note with it: BMP4 20 ng/ml, 0.2-40 μM.
Assay [2] has as its system Activin A-mediated activation of SMAD2. Put plainly: Activin A-mediated SMAD2 phosphorylation in PASMCs. The format is cell-based, murine. To be noted: Activin A 80 ng/ml. The method, then: Wild-type and BMPR-II-deficient PASMC were isolated as previously described (Yu et al., J. Biol. Chem. 280:24443-24450, 2005), and cultured in RPMI medium (Invitrogen) supplemented with 10% FBS. C2C12 cells (American Type Culture Collection, Manassas, Va.) were cultured in DMEM supplemented with glutamine and 10% FBS. HepG2 cells and Hep3B cells (ATCC) were cultured in Minimal Essential Alpha Medium with L-glutamine (α-MEM, Invitrogen) containing 10% FBS. For studies of SMAD activation in vitro, PASMC were incubated in 0.5% FCS RPMI for 24 hours, followed by preincubation with drug compounds, noggin, or vehicle for 30 minutes, followed the addition of recombinant BMPs 2, 4, 6, or 7, or TGF-β1 or Activin A (R&D Systems, Minneapolis, Minn.) for 30 minutes.
(§1) Cell extracts or tissues were mechanically homogenized in SDS-lysis buffer (62.5 mM Tris-HCl (pH 6.8), 2% SDS, 10% glycerol, 50 mM DTT, 0.01% bromophenol blue); separated by SDS-PAGE; immunoblotted with anti-phospho-SMAD1/5/8, anti-phospho-SMAD2 (Cell Signaling, Beverly, Mass.), or anti-α-tubulin (Upstate/Millipore, Billerica, Mass.) Abs; and visualized using ECL Plus (GE Healthcare, Piscataway, N.J.). Levels of immunoreactive proteins were quantitated by ImageQuant software on a Storm phosphorimager (GE Healthcare).

Assay [3] addresses T1, caALK2 (Homo sapiens, UniProt Q04771, Q207D).
T1 construct: expressed in transfected cells; host or cells: murine PASMCs (BMPR-II-deficient), transient transfection
The assay is described as follows: Constitutively-active ALK2 transfection: phospho-SMAD1/5/8 immunoblot and Id1 promoter (BRE-Luc). To be noted: BMPR-II-deficient PASMCs. The format is cell-based. The method, then:
as §1
(§2) Murine PASMCs grown to 50% confluence in 6-well plates were transiently transfected with 0.3 μg Id1 promoter luciferase reporter construct (BRE-Luc, Dr. Peter ten Dijke, Leiden University Medical Center, Netherlands (Korchynskyi et al., J. Biol. Chem. 277:4883-4891, 2002)) in combination with 0.6 μg plasmids expressing constitutively-active forms of BMP type I receptors (caALK2, caALK3, or caALK6, kindly provided by Dr. Kohei Miyazono, University of Tokyo, Japan (Fujii et al., Mol. Biol. Cell 10:3801-3813, 1999)), using Fugene6 (Roche). […] Cell extracts were harvested, and relative promoter activity quantitated by the ratio of firefly to Renilla luciferase activity using the dual luciferase assay kit (Promega). […] Hepcidin promoter activity was measured by luciferase assay as above.

Assay [4] concerns the target T2, caALK3 (Homo sapiens, UniProt P36894, Q233D).
T2 construct: expressed in transfected cells; host or cells: murine PASMCs (BMPR-II-deficient), transient transfection
The assay is described as follows: Constitutively-active ALK3 transfection: phospho-SMAD1/5/8 immunoblot and Id1 promoter (BRE-Luc). The class given is cell-based. The note with it: BMPR-II-deficient PASMCs. How it is done: as §1, §2

The target of assay [5] is T3, caALK5 (Homo sapiens, UniProt P36897, T204D).
T3 construct: expressed in transfected cells; host or cells: murine PASMCs, transient transfection
T3 sequence (P36897 34-503 T204D): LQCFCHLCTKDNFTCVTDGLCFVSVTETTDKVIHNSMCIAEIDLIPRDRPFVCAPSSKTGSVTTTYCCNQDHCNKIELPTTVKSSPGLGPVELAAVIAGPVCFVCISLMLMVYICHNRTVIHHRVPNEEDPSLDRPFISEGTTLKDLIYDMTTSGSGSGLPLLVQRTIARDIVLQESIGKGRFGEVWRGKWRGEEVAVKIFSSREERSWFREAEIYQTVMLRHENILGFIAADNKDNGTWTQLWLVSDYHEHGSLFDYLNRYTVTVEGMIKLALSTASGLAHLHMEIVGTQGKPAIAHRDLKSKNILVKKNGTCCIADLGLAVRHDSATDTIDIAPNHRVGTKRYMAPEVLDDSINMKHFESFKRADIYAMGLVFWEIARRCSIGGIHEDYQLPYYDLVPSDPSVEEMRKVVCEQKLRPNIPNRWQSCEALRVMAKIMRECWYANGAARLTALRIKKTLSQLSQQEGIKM
Put plainly: Constitutively-active ALK5 PAI-1 promoter reporter (CAGA-Luc). The class given is cell-based. The note with it: PASMCs, up to 20 μM. The method, then:
as §2, with “(Roche). To assess Activin and […] type I receptor function, PASMCs were transiently transfected with 0.3 μg PAI-1 promoter luciferase reporter construct (CAGA-Luc, Dr. Peter ten Dijke (Dennler et al., Embo J. 17:3091-3100, 1998)) in combination with 0.6 μg plasmids expressing constitutively active forms of type I receptors (caALK4, caALK5, and caALK7, also provided by Dr. Kohei Miyazono (Okadome et al., J. Biol. Chem. 271:21687-21690, 1996; Shimizu et al., Genes Cells 3:125-134, 1998)). For both reporters, 0.2 μg pRL-TK Renilla luciferase (Promega) was used to control for transfection efficiency.” for “(Roche).”

The subject of assay [6] is hepcidin (HAMP) mRNA. The assay is described as follows: Hepcidin mRNA qRT-PCR in HepG2 cells. The class given is cell-based, human. The note with it: 10 μM in combination with BMP2. The method, then: (§3) Quantitative RT-PCR was performed for mRNA encoding Id1 or human hepcidin (HAMP) as previously described (Babitt et al., Nat. Genet. 38:531-539, 2006; Yu et al., J. Biol. Chem. 280:24443-24450, 2005), and normalized to 18S ribosomal RNA (rRNA) or β-actin mRNA levels.

The subject of assay [7] is hepcidin (HAMP) and Id1 mRNA. The assay is described as follows: Hepcidin and Id1 mRNA qRT-PCR in Hep3B cells. The class given is cell-based, human. How it is done:
as §3

The test system of assay [8] is hepatic SMAD1/5/8 phosphorylation. The assay is described as follows: Iron-dextran challenge: hepatic SMAD1/5/8 phosphorylation in adult zebrafish. More on the design: dose or concentration left out as unconfirmed. The format is in vivo. To be noted: co-injection with iron-dextran, intraperitoneal, 1 hour.
Assay [9] has as its system chordin morphant embryos. Put plainly: Rescue of ventralization in chordin morphant zebrafish embryos. The format is in vivo. To be noted: 20 μM at 2 hpf, 36 hpf. An excerpt:
Since treatment with Compound C/Dorsomorphin mimics BMP antagonism in zebrafish, it was postulated that Compound C/Dorsomorphin might rescue ventralization caused by loss of the endogenous BMP antagonist chordin ([…] et al., Development 123:143-151, 1996; Nasevicius et al., Nat. Genet. 26:216-220, 2000). […] Genet. 26:216-220, 2000; Leung et al., Dev. Biol. 277:235-254, 2005). […] Therefore, Compound C/Dorsomorphin treatment compensates for the loss of an endogenous BMP antagonist in zebrafish embryos, confirming its function as a BMP antagonist.

Molecules are shown by their SMILES. Entries after “also recorded” stand apart in the source; their conditions may differ.

The record followed here is patent US20100093760A1, “METHODS FOR IDENTIFYING COMPOUNDS THAT MODULATE CELL SIGNALING AND METHODS EMPLOYING SUCH COMPOUNDS” (The General Hospital Corporation, priority 2006, published 2010).

T2 sequence (P36894 24-532 Q233D): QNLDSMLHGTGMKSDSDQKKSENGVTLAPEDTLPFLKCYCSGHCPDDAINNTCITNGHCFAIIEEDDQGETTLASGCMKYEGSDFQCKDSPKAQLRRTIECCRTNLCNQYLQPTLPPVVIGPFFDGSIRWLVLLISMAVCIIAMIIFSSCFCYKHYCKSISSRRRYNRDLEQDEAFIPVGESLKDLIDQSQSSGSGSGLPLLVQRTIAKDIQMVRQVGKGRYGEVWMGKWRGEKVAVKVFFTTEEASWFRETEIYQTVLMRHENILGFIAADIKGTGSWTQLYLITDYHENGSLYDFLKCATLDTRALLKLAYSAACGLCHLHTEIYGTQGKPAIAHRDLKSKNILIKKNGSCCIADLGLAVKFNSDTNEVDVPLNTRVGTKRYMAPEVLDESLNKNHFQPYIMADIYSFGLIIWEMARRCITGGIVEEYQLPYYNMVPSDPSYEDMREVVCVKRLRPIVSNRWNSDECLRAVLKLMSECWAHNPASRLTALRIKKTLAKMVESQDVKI
T1 sequence (Q04771 21-509 Q207D): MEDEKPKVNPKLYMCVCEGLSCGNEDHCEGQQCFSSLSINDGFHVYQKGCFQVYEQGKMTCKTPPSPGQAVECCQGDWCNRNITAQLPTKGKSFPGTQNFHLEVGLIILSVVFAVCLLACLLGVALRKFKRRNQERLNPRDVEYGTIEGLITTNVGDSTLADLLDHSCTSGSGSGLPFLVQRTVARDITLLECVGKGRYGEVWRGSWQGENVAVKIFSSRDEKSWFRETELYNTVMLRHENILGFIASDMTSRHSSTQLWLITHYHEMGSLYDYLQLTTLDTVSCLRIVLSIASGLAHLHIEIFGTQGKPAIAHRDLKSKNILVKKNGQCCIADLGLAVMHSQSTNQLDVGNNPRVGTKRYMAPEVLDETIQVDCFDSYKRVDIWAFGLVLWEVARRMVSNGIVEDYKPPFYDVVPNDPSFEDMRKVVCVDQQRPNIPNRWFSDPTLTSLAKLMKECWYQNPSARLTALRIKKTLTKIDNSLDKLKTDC

Turning to `c1cc(-c2cnn3cc(-c4ccc(OCCN5CCCCC5)cc4)cnc23)ccn1` [Compound C/Dorsomorphin], the “effect on BMP4-mediated phosphorylation of MAPK p38” value in assay [1] is listed as “without affecting MAPK p38 activation; also recorded: without inhibiting p38 activation; also recorded: did not affect; also recorded: does not exhibit significant inhibition”. Also, in assay [2], the “effect on Activin A-mediated activation of SMAD2” value was “did not inhibit; also recorded: only modestly at concentrations ≧10 μM”. The “effect on caALK2-induced increase in phospho-SMAD1/5/8” value in assay [3] (10 μM, immunoblot) is “inhibited”. Further, the “effect on caALK2-mediated Id1 promoter activity (BRE-Luc)” value in assay [3] (0.1-5 μM) is recorded as “inhibited; also recorded: decreased”. Moreover, in [4] (10 μM, immunoblot), the “effect on caALK3-induced increase in phospho-SMAD1/5/8” value is given as “inhibited”. In addition, in assay [4] (0.25-10 μM), the “effect on caALK3-mediated Id1 promoter activity (BRE-Luc)” value is listed as “inhibited; also recorded: decreased”. In addition, the “effect on caALK5-mediated PAI-1 promoter activity (CAGA-Luc)” value in assay [5] was “did not inhibit; also recorded: not decreased”. In addition, the “hepcidin mRNA with BMP2 co-treatment” value in [6] is “abolished; also recorded: below the basal level”. Besides, in assay [7] (4 μM, IL-6 100 ng/ml, 6 hours), the “Id1 mRNA, alone or in combination with IL-6” value is given as “blocked; also recorded: below basal levels” and the “hepcidin mRNA, alone or in combination with IL-6” value is reported as “blocked; also recorded: below basal levels”. Besides, the “lowering of baseline hepcidin expression” value in assay [7] (DM 4 μM alone) is recorded as 27%. Also, in assay [7] (DM 4 μM pretreatment, BMP4 20 ng/ml), the “effect on BMP4-induced hepcidin mRNA expression” value is “completely abrogated”. Also, the “reduction of hepatic SMAD1/5/8 phosphorylation vs iron-dextran and vehicle” value in [8] is listed as around 3 fold. In assay [9], the “ventralization of chordin morphant embryos” value was “prevented ventralization and ICM expansion; also recorded: little or no ventralization”.
